Experimental data from patent US20210137853A1, “METHODS OF TREATING EPILEPTIC PATIENTS WITH FENFLURAMINE” (Zogenix International Limited, priority 2019, published 2021).
“And” between values parts separate entries of the source, which are not always exact repeats. Identical values can stand only once. Like-named read-outs stand apart in the source and are kept apart here.

What was measured:
5-HT1D = 5-HT1D (Homo sapiens, UniProt P28221); conditions: Table 4, cited from earlier work; for Ki: values from ChemBL, PDSP or DrugBank.ca and literature
[1] = tested on: Maximal Electroshock (MES) model of acute generalized tonic clonic seizures; experiment: MES test of fenfluramine in combination with serotonergic inhibitors; conditions: for Activity in MES model in presence of FFA (animals protected): Table 7, compound combined with 3 mg/kg FFA; for Protected (N/F) / Impaired (I/F): compound IP at Table 5 dose and time of test, with fenfluramine 3 mg/kg IP 4 hr pre-test; for effect on FFA anti-seizure activity in MES model (in words): summary of Table 7
Protocol: Specifically, the present example describes characterization of anticonvulsant effects of fenfluramine when administered in combination with various other compounds using a murine model of seizures: a Maximal Electroshock (IVIES) model. Maximal Electroshock (IVIES) is a model of acute generalized tonic clonic seizures. Induction of seizures is caused by 60 Hz 0.2 second alternating 50 mA current in the mouse. Tonic hindlimb extensions are measured to assess seizures or seizure protection.
So, for example, a compound with a 1 hour time of peak activity would be administered 3 hours after FEN administration in the study design.

5-HT1A = molecular target: T1, 5-HT1A (Homo sapiens, UniProt P08908); conditions: cited from earlier work; for Ki: values from ChemBL, PDSP or DrugBank.ca and literature
T1 sequence (P08908 1-422): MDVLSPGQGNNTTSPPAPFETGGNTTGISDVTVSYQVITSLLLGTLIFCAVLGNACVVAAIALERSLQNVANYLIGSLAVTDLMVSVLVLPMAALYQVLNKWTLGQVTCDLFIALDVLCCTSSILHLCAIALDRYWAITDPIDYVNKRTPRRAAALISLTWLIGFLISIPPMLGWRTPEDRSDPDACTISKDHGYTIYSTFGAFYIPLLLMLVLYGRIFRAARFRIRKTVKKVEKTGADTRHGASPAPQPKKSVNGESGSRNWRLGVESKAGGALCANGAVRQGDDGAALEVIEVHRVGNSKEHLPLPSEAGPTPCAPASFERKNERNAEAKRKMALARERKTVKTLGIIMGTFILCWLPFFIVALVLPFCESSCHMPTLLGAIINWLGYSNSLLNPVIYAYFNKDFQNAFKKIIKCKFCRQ

Dravet syndrome seizures = conditions: supplemented with clobazam and valproate; cited from earlier work
5-HT2C = molecular target: T2, 5-HT2C (Homo sapiens, UniProt P28335); conditions: Table 4; values from ChemBL, PDSP or DrugBank.ca and literature; cited from earlier work
T2 sequence (P28335 33-458): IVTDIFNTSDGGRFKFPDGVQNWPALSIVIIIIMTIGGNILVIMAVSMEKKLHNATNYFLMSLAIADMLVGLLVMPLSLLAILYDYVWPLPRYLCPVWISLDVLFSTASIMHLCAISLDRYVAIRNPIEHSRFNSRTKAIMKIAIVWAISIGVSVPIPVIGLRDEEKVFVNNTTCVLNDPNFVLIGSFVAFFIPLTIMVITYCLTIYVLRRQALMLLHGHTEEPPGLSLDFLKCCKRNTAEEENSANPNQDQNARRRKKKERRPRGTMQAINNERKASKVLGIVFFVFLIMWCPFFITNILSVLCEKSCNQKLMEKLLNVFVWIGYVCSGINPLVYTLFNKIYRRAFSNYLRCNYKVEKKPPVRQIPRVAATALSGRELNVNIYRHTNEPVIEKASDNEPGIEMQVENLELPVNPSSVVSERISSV

5-HT1B = 5-HT1B (Homo sapiens, UniProt P28222); conditions: cited from earlier work
MES test = conditions: cited from earlier work
[2] = tested on: Maximal Electroshock (MES) model of acute generalized tonic clonic seizures; experiment: MES test of fenfluramine (FFA) alone, dose and time range; assay type: in vivo, mouse
Text: Results are depicted in Table 6 below.

5-HT2A = 5-HT2A (Homo sapiens, UniProt P28223); conditions: Table 4; values from ChemBL, PDSP or DrugBank.ca and literature; cited from earlier work
[3] = fenfluramine 3 mg/kg IP plus vehicle (VEH) only
[4] = 50% inhibition of specific binding, Moser et al. 1990

Chain of 5-HT1D (P28221 whole entry, species assumed): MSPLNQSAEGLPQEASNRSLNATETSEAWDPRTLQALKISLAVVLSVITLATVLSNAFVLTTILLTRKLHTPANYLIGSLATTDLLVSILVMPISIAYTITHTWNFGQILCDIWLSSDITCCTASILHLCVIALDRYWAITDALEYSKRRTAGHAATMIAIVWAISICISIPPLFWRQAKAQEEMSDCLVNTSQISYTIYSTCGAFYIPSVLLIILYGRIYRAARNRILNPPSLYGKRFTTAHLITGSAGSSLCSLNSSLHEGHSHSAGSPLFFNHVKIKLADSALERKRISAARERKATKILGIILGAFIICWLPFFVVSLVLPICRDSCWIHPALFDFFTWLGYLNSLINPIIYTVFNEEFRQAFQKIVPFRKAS
Chain of 5-HT1B (P28222 whole entry, species assumed): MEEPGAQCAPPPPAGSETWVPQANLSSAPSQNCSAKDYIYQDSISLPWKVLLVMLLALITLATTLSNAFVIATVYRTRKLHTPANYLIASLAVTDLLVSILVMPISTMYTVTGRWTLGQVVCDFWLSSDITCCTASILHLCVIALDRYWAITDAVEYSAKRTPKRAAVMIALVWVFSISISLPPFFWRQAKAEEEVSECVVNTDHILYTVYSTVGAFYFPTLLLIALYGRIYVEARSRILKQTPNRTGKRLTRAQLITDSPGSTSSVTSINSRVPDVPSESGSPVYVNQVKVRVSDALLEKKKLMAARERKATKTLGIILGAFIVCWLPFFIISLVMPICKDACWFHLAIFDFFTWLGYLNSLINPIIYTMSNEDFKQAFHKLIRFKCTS
Chain of 5-HT2A (P28223 whole entry): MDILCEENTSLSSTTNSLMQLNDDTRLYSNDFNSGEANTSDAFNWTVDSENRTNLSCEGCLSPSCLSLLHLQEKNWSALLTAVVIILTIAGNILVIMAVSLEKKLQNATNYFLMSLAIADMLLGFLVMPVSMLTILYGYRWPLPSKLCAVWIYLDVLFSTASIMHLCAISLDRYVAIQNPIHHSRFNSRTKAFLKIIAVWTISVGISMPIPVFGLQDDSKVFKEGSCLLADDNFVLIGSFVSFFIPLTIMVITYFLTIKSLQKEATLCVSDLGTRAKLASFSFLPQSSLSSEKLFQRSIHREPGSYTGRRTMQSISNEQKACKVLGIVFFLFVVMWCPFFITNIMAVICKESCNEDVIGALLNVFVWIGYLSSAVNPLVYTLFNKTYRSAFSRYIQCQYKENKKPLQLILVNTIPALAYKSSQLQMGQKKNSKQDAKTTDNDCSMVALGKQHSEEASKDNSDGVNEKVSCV

Row | SMILES | Ki (5-HT1D) | Activity in MES model in presence of FFA (animals protected) [1] | Protected (N/F) [1] | effect on FFA anti-seizure activity in MES model (in words) [1] | Impaired (I/F) [1] | also measured
1 | O=c1[nH]c2ccccc2n1C1CCN(CCCC(c2ccc(F)cc2)c2ccc(F)cc2)CC1 [Pimozide] | 3100 nM | FFA protected = 3/8 | 3/8 | do not block FFA anti-seizure activity | – | –
2 | OC(CN1CCN(c2cccc(Cl)c2)CC1)C(c1ccccc1)c1ccccc1 (stereo not drawn) [BRL 15572] | – | FFA reduced protection = 1/8 | 1/8 | appear to block FFA anti-seizure activity | 0/8 | pKi 5-HT1A (5-HT1A; Table 4): 7.7; pKi 5-HT1D (5-HT1D): 7.9
3 | CC(C)NCC(O)COc1cccc2[nH]ccc12 (stereo not drawn) [Pindolol] | 4900 nM | FFA protected = 5/8 | 5/8 | do not block FFA anti-seizure activity | – | –
4 | CC(C)(C)C(O)/C=C/c1ccc2c(c1)OCO2 (stereo not drawn) [Stiripentol, stiripentol] | – | – | – | – | – | reduction of overall seizure rate (Dravet syndrome seizures): 70%
5 | CN1CCN(C2=Nc3ccccc3Oc3ccc(Cl)cc32)CC1 [Loxapine] | 3470 nM | – | – | – | – | Ki (5-HT1A; Table 4): 2460 nM; Ki (5-HT2C): 9.5 to 21 nM; Ki (5-HT1B; Table 4, values from ChemBL, PDSP or DrugBank.ca and literature): 388 nM
6 | Clc1ccc2c(c1)N=C(N1CCNCC1)c1ccccc1N2 [N-desmethyl-clozapine, N-desmethylclozapine] | 130 nM | FFA reduced protection = 1/8 | 1/8 | appear to block FFA anti-seizure activity | 0/8 | Ki (5-HT1A; Table 4): 160 nM; Ki (5-HT2C): 4.8 nM
7 | CN(C)CCC=C1c2ccccc2COc2ccccc21 [doxepin] | – | FFA protected = 7/8 | 7/8 | do not block FFA anti-seizure activity | – | ED50 in MES test (MES test; 0.25 hr post-administration): 8.2 mg/kg; ED50 in MES test (MES test; IP, at TPE of 5 min): 6.6 mg
8 | CN1CCN2c3ccccc3Cc3ccccc3C2C1 (stereo not drawn) [mianserin] | – | FFA reduced protection = 2/8 | 2/8 | – | 0/8 | –
9 | CN1CCN(C2=Nc3cc(Cl)ccc3Nc3ccccc32)CC1 [Clozapine] | – | FFA reduced protection = 1/8 | – | appear to block FFA anti-seizure activity | – | –
10 | CN(C)CCCN1c2ccccc2CCc2ccc(Cl)cc21 [clomipramine] | – | FFA protected = 7/8 | 7/8 | do not block FFA anti-seizure activity | 0/8 | Ki (5-HT2C): 64.6 nM
11 | CCNC(C)Cc1cccc(C(F)(F)F)c1 (racemic) [Fenfluramine, (RS)—N-ethyl-1-[3-(trifluoromethyl)phenyl]propan-2-amine] | – | – | – | – | – | Activity in MES model: FFA protected ([2]; 2.5 mg/kg IP, 4 hr pre-MES, SOW #1 MES Quantification): FFA protected = 3/4; animals protected in the MES assay ([2]; 3 mg/kg FFA): 50-60%; Activity in MES model: FFA protected ([2]; 3 mg/kg IP, 2 hr pre-MES, SOW #1 MES Identification): FFA protected = 3/4; Activity in MES model: FFA protected ([2]; 3 mg/kg, 4 hr pre-MES, SOW #2 (-) control): FFA protected = 4/8; Activity in MES model: FFA protected ([2]; 3 mg/kg, 4 hr pre-MES, SOW #3 (-) control): FFA protected = 5/8; Activity in MES model: FFA protected ([2]; 5 mg/kg IP, 4 hr pre-MES, SOW #1 MES Quantification): FFA protected = 6/8; protection in the MES model ([2]; 10 mg/kg FFA): 100%; Activity in MES model: FFA protected ([2]; 10 mg/kg IP, 2 hr pre-MES, SOW #1 MES Time Course): FFA protected = 3/4; Activity in MES model: FFA protected ([2]; 10 mg/kg IP, 4 hr pre-MES, SOW #1 MES Quantification): FFA protected = 8/8; Activity in MES model: FFA protected ([2]; 10 mg/kg IP, 4 hr pre-MES, SOW #1 MES Time Course): FFA protected = 4/4; Impaired (I/F) [2, 3]: 0/8; Protected (N/F) [2, 3]: 4/8 and 5/8
12 | O=C1CC2(CCCC2)CC(=O)N1CCNCC1COc2ccccc2O1 (stereo not drawn) [Binospirone] | – | FFA protected = 3/8 | 3/8 | – | 0/8 | pIC50 5-HT1A (5-HT1A; [4]): 8.6; pIC50 5-HT1B (5-HT1B; [4]): 4.5
13 | NC(=O)N1c2ccccc2C=Cc2ccccc21 [Carbamazepine] | – | Protected = 8/8 | 8/8 | no interference was observed | 0/8 | –
14 | CN(C)CCCN1c2ccccc2Sc2ccc(Cl)cc21 [Chlorpromazine] | 452 nM | FFA protected = 5/8 | 5/8 | do not block FFA anti-seizure activity | – | –
15 | OCCN1CCN(CCCN2c3ccccc3Sc3ccc(Cl)cc32)CC1 [perphenazine] | – | FFA reduced protection = 2/8 | 2/8 | – | – | –
16 | CN1CC2c3ccccc3Oc3ccc(Cl)cc3C2C1 (stereo not drawn) [asenapine] | 10.2 nM | FFA reduced protection = 2/8 | 2/8 | – | 0/8 | Ki (5-HT1A; Table 4): 15 nM; Ki (5-HT2C): 0.27 nM; Ki (5-HT2A): 0.77 nM
